# From patent US4795639A, “Potentiating formulations” (priority 1971, dated 1989)
# Values joined by “and” are separate entries in the source; they are usually repeats but may differ in a detail not shown here. Identical values can stand only once.
# Key:
# Staphylococcus aureus = assay: zone inhibition, pteridine in agar, drugs in well; type: cell-based; details: for complete zone inhibition, SMX (300) / zone including partial inhibition, SMX (300): SMX 300 μg/ml; for complete zone inhibition, TMP + SMX (5) (100) / zone including partial inhibition, TMP + SMX (5) (100): TMP 5 + SMX 100 μg/ml
# Experimental: The pteridine was included in a soya peptone medium of low thymidine content (Wellcotest Sensitivity Test Agar) contained in a Petri-dish and the other component(s) added to the well resulting from the removal of a small plug from the medium. The surface of the medium was inoculated with the test organism and then incubated.
# [1] = target: T1, dihydropteroate synthetase (Escherichia coli, UniProt P0AC13); assay: `synthetase` assay: formation of dihydropteroate-C^14; type: biochemical, E. coli
# T1 construct: incubating an extract of E. coli with pAB-7-C^14; endogenous in cells; host or cells: E. coli extract (synthetase separated from HMPPS on Sephadex G-100, as concluded from part (a))
# T1 sequence (P0AC13 whole entry): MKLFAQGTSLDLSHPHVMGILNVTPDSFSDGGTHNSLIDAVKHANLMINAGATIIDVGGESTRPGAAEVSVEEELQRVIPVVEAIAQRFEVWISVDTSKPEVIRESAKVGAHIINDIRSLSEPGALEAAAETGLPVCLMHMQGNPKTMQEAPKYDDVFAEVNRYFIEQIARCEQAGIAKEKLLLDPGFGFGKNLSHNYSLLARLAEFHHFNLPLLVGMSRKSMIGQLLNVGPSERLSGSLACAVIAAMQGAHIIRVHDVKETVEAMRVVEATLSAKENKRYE
# Experimental: (b) The activity of the test compound against `synthetase` was determined as follows, by monitoring the formulation of dihydropteroate-C^14.
# A pool of Pt was prepared from ATP neutralised (50 μl, 0.1M), MgCl2.6H2 O (50 μl, 0.1M), dithiothreitol (100 μl, 0.1M), tris buffer (100 μl, 0.4M, pH 8.3), HMPt (25 μl, 876 μM) and 170 μl of a solution containing HMPPS. The mixture was incubated for 60 minutes at 37° C., chilled briefly on ice and then dextrose (100 μl containing 72.1 mg/ml) and hexokinase (20 μl containing 2000 units/ml) were added at room temperature to the solution, which was allowed to stand at this temperature for 15 minutes.
# A solution of MgCl2.6H2 O (10 μl, 0.1M), pAB-C^14 (10 μl, 0.4 mM), dithiothreitol (20 μl, 0.1M) and tris buffer (20 μl, 0.4M, pH8.3) was made in each of five test tubes and then 80 μl of the contents of the pool added to each, together with synthetase and/or test compound as indicated in TABLE 2. The solution was then made up to 200 μl with distilled water.
# (§1) All seven tubes were then incubated for 30 minutes at 37° C., chilled on ice and then these, together with control tubes 10 to 12 from part (a), were chromatographically analysed as follows:
# (§2) 100 μl of the contents of each of the tubes was spotted onto Whatman No. 3 MM chromatography paper (2×20 cm) at the `origin`, the run descending in a Sorenson buffer of potassium and sodium phosphates (0.1M, pH 7.0) for 10 to 15 cm.
# HMPPS and `synthetase` = assay: control tubes with source of both HMPPS and `synthetase`, labelled pAB, chromatographic analysis; type: biochemical, E. coli; details: 1 × 10^-5 M
# Experimental: Control tubes 10 to 12 include a source of both HMPPS and synthetase, unlabelled ATP, 0.1M MgCl2.6H2 O and labelled pAB.
# Two control test tubes were prepared, each containing ATP (10 μl, 0.1M), MgCl2.6H2 O (10 μl, 0.1M), dithiothreitol (20 μl, 0.1M) tris buffer (20 μl, 0.4M, pH 8.3), pAB-C^14 (10 μl, 0.4 mM), and 20 μl of a solution containing HMPPS and `synthetase` of known activity. The test compound was added to the second of these two tubes up to a final concentration of 10^-5 M, and both tubes were made up with distilled water to 200 μl.
# as §1, §2
# E. tenella = assay: coccidiosis screening test in chicks, E. tenella; type: in vivo, Eimeria tenella
# Experimental: "Screening tests" were performed to establish the effectiveness of the compounds of formula (I) both alone and in combination with a competitor and or an inhibitor and to determine the most useful levels of relative concentrations of each component in combatting or suppressing coccidiosis.
# Groups of Ranger cockerels, housed in small, heated cages with wire floors situated in enironmentally controlled isolation rooms, were infected orally with sporulated oocysts of the Eimeria spp such as E. tenella or E. acervulina. The appropriate test compound(s), (DMHP, sulphaquinoxaline (SQX) or diaveridine (DV) or any combination of these) were incorporated in a small quantity of specially formulated laboratory ration deficient in Vitamin K (`L.D.4 mash`), as a 1/10 pre-mix, which was then mixed into the diet on a horizontal roller drum mixed and administered to groups of chicks one day prior to infection, leaving some groups as untreated controls. Administration was continued for several days, for example about 8 or 9 days.
# The amount of damage, marked by lesions in the caecal walls was investigated in those chicks that died during the course of the experiment, and in those sacrificed on the final day of administration, and compared with the untreated controls as a basis for the determination of therapeutic activity. In addition the mortality rate and the percentage weight gains in the various groups were assessed. A marked or definite effect of the administered drug could be recognised even when the mortality rates were similar or identical, since the increase in the weight gains and the reduction of the extension of lesions indicated by the lesion score, is characteristic of an improvement. […]
# 4:1 sulphaquinoxaline/diaveridine mixtures at levels of 80/20, 60/15, 40/10 and 20/5 p.p.m. were administered alone and in combination with a wide range of low concentrations of DMHP to the birds.
# The results of these screening tests are set forth in Table 4 showing the concentration of the various component compounds in parts per million of the bird's diet, the mortality from coccidiosis, the percentage weight gain, the lesion score the oocyst output, and the activity. The caecal lesion index is calculated using a score system where: […]
# In addition a score of 4 is assigned to any bird that dies of coccidiosis during the experiment. [formula] In the activity column, +++, ++, +, ± and - relate respectively to very high, high, slight, doubtful and nil activity of the test drug against the Eimeria infection.
# [2] = test system: Staphylococcus aureus CN 491; assay: testing discs on standard nutrient medium; type: cell-based; details: Staphylococcus aureus, CN491; read-out: Size of zone in cm (×6 magnification)
# [3] = test system: Pseudomonas aeruginosa CN 200; assay: testing discs on standard nutrient medium; type: cell-based; details: Pseudomonas aeruginosa, CN200; read-out: Size of zone in cm (×6 magnification)
# [4] = pteridine 3 μg/ml, TMP 30 μg/ml
# [5] = pteridine 10 μg/ml, TMP 30 μg/ml
smiles,measurement,setting,value
"CC1(C)Nc2nc(N)nc(O)c2N=C1CO [DMHP, 2-amino-4-hydroxy-6-hydroxymethyl-7,7-dimethyl-7,8-dihydropteridine]","complete zone inhibition, SMX (300)",Staphylococcus aureus; pteridine 3 μg/ml,4.0 centimeters
same,"zone including partial inhibition, SMX (300)",Staphylococcus aureus; pteridine 3 μg/ml,10.0 centimeters
same,"complete zone inhibition, TMP (30)",Staphylococcus aureus; [4],8.0 centimeters
same,"zone including partial inhibition, TMP (30)",Staphylococcus aureus; [4],10.0 centimeters
same,"complete zone inhibition, TMP + SMX (5) (100)",Staphylococcus aureus; pteridine 3 μg/ml,10.0 centimeters
same,"zone including partial inhibition, TMP + SMX (5) (100)",Staphylococcus aureus; pteridine 3 μg/ml,12.0 centimeters
same,"complete zone inhibition, SMX (300)",Staphylococcus aureus; pteridine 10 μg/ml,5.0 centimeters
same,"zone including partial inhibition, SMX (300)",Staphylococcus aureus; pteridine 10 μg/ml,12.0 centimeters
same,"complete zone inhibition, TMP (30)",Staphylococcus aureus; [5],8.5 centimeters
same,"zone including partial inhibition, TMP (30)",Staphylococcus aureus; [5],10.5 centimeters
same,"complete zone inhibition, TMP + SMX (5) (100)",Staphylococcus aureus; pteridine 10 μg/ml,10.5 centimeters
same,"zone including partial inhibition, TMP + SMX (5) (100)",Staphylococcus aureus; pteridine 10 μg/ml,12.0 centimeters
same,"complete zone inhibition, TMP (30)","Staphylococcus aureus; pteridine 30 μg/ml in medium, TMP 30 μg/ml in well, about 6× magnification",11.0 centimeters
same,"complete zone inhibition, SMX (300)",Staphylococcus aureus; pteridine 30 μg/ml,9.0 centimeters
same,"zone including partial inhibition, SMX (300)",Staphylococcus aureus; pteridine 30 μg/ml,14.5 centimeters
same,"zone including partial inhibition, TMP (30)","Staphylococcus aureus; pteridine 30 μg/ml, TMP 30 μg/ml",14.0 centimeters
same,"complete zone inhibition, TMP + SMX (5) (100)",Staphylococcus aureus; pteridine 30 μg/ml,11.5 centimeters
same,"zone including partial inhibition, TMP + SMX (5) (100)",Staphylococcus aureus; pteridine 30 μg/ml,14.5 centimeters
same,inhibition at 10 µM,[1]; final concentration 1 × 10^-5 M,0%
same,inhibition at 2.5 µM,[1]; final concentration 2.5 × 10^-6 M,5%
same,inhibition at 87 µM,[1]; final concentration 8.7 × 10^-5 M,9%
same,% Inhibn.,HMPPS and `synthetase`; Table 1 control tube 12,79%
same,% Inhibn.,HMPPS and `synthetase`; Table 2 control tube 7,83%
same,Mortality from Coccidiosis,"E. tenella; Expt. 1, 200,000 oocysts, SQX/DV/DMHP p.p.m in diet: -/-/250, -/-/90, -/-/30, -/-/10, 30/30/-, 30/30/250, 30/30/90, 30/30/30, 30/30/10",1/5 and 2/5 and 3/5
same,Mortality from Coccidiosis,"E. tenella; Expt. 4, 100,000 oocysts, p.p.m SQX/DV/DMHP: b374 10/-/-, b375 -/20/-, b376 -/-/10, b377 10/-/10, b378 -/20/10, b379 10/20/-, b381 10/20/10, b382 20/-/-, b383 -/40/-, b384 -/-/20, b385 20/-/20, b386 -/40/20, b387 20/40/-, b389 20/40/20",8/10 and 6/10
same,Mortality from Coccidiossis,"E. tenella; Expt. 5, 100,000 oocysts, SQX/DV p.p.m with DMHP 40, 20, 10, 5 p.p.m: b409-412 20/20, b413-416 26.7/13.3, b417-420 30/10, b421-424 32/8, b425-428 33.4/6.6, no DMHP: b429 20/20, b430 26.7/13.3, b431 30/10, b432 32/8, b433 33.4/6.6, DMHP alone b434-437 40, 20, 10, 5",19/20 and 18/20 and 20/20
same,activity alone against infection with E. tenella,E. tenella; all levels of concentration tested,inactive
same,potentiation of the activity of diaveridine/sulphaquinoxaline mixtures,E. tenella; in many cases by as much as,3 to 4 fold
same,zone of inhibition at 100 µg/disc,[2],0 mm
same,zone of inhibition at 100 µg/disc,[3],220 mm
